Source: ChEMBL document CHEMBL5143602, “Design, synthesis and antibacterial evaluation of pleuromutilin derivatives” (Bioorg Med Chem, 2022)
Converted amounts (≈) assume the structure as drawn.

How the values were obtained:
Assay type in all cases: functional
[1] = system: Staphylococcus aureus; assay: Antibacterial activity against methicillin-sensitive Staphylococcus aureus ATCC 29213 assessed as inhibition of bacterial growth incubated for 18 hrs by two-fold serial dilution method
[2] = system: Staphylococcus aureus; assay: Antibacterial activity against methicillin-resistant Staphylococcus aureus ATCC 43300 assessed as inhibition of bacterial growth incubated for 18 hrs by two-fold serial dilution method
[3] = system: Enterococcus faecium; assay: Antibacterial activity against Enterococcus faecium ATCC19434 assessed as inhibition of bacterial growth incubated for 18 hrs by two-fold serial dilution method
[4] = system: Staphylococcus epidermidis; assay: Antibacterial activity against Staphylococcus epidermidis ATCC12228 assessed as inhibition of bacterial growth incubated for 18 hrs by two-fold serial dilution method

`C=C[C@]1(C)C[C@@H](OC(=O)CNC(=S)Nc2ccc(F)cc2)[C@]2(C)[C@H](C)CC[C@]3(CCC(=O)[C@H]32)[C@@H](C)[C@@H]1O` gave an MIC [1] of 1 µg/mL (≈ 1.88 µM), an MIC [2] of 0.25 µg/mL (≈ 0.471 µM) and an MIC [3] of 16 µg/mL (≈ 30.1 µM). For the same molecule, the MIC [4] was greater than 64 µg/mL.
Work on `C=C[C@]1(C)C[C@@H](OC(=O)CNC(=O)Nc2ccccc2Cl)[C@]2(C)[C@H](C)CC[C@]3(CCC(=O)[C@H]32)[C@@H](C)[C@@H]1O` yielded an MIC [1] of 0.5 µg/mL (≈ 0.941 µM), an MIC [2] of 0.5 µg/mL (≈ 0.941 µM) and an MIC [3] of 8 µg/mL (≈ 15.1 µM). The MIC [4] was greater than 64 µg/mL.
`C=C[C@]1(C)C[C@@H](OC(=O)CNC(=O)Nc2cccc(Cl)c2)[C@]2(C)[C@H](C)CC[C@]3(CCC(=O)[C@H]32)[C@@H](C)[C@@H]1O` showed an MIC [1] of 1 µg/mL (≈ 1.88 µM), an MIC [2] of 0.5 µg/mL (≈ 0.941 µM) and an MIC [3] of 8 µg/mL (≈ 15.1 µM). It also gave an MIC [4] greater than 64 µg/mL.
Molecule `C=C[C@]1(C)C[C@@H](OC(=O)CNC(=S)NC(C)=O)[C@]2(C)[C@H](C)CC[C@]3(CCC(=O)[C@H]32)[C@@H](C)[C@@H]1O` has an MIC [1] of 2 µg/mL (≈ 4.18 µM), an MIC [2] of 2 µg/mL (≈ 4.18 µM) and an MIC [3] of 16 µg/mL (≈ 33.4 µM). It also gave an MIC [4] greater than 64 µg/mL.
In the case of `C=C[C@]1(C)C[C@@H](OC(=O)CNC(=S)NC(=O)c2ccc(Cl)cc2)[C@]2(C)[C@H](C)CC[C@]3(CCC(=O)[C@H]32)[C@@H](C)[C@@H]1O`, the MIC [1] was 16 µg/mL (≈ 27.8 µM), the MIC [2] was 16 µg/mL (≈ 27.8 µM) and the MIC [3] was 8 µg/mL (≈ 13.9 µM). For the same molecule, the MIC [4] was greater than 64 µg/mL.
`C=C[C@]1(C)C[C@@H](OC(=O)CNC(=S)Nc2ccc3ccccc3c2)[C@]2(C)[C@H](C)CC[C@]3(CCC(=O)[C@H]32)[C@@H](C)[C@@H]1O` gave an MIC [1] of 16 µg/mL (≈ 28.4 µM), an MIC [2] of 4 µg/mL (≈ 7.11 µM) and an MIC [3] of 32 µg/mL (≈ 56.9 µM). The MIC [4] was greater than 64 µg/mL.
For `C=C[C@]1(C)C[C@@H](OC(=O)CNC(=O)Nc2cc(Cl)cc(Cl)c2)[C@]2(C)[C@H](C)CC[C@]3(CCC(=O)[C@H]32)[C@@H](C)[C@@H]1O`, the MIC [1] was 0.5 µg/mL (≈ 0.884 µM), the MIC [2] was 0.5 µg/mL (≈ 0.884 µM) and the MIC [3] was 32 µg/mL (≈ 56.6 µM). It also gave an MIC [4] greater than 64 µg/mL.
For `C=C[C@]1(C)C[C@@H](OC(=O)CNC(=O)NC2CCCCC2)[C@]2(C)[C@H](C)CC[C@]3(CCC(=O)[C@H]32)[C@@H](C)[C@@H]1O`, the MIC [1] was 2 µg/mL (≈ 3.98 µM), the MIC [2] was 2 µg/mL (≈ 3.98 µM) and the MIC [3] was 8 µg/mL (≈ 15.9 µM). For the same molecule, the MIC [4] was greater than 64 µg/mL.
Work on `C=C[C@]1(C)C[C@@H](OC(=O)CNC(=S)Nc2ccc(C(F)(F)F)cc2)[C@]2(C)[C@H](C)CC[C@]3(CCC(=O)[C@H]32)[C@@H](C)[C@@H]1O` yielded an MIC [1] of 1 µg/mL (≈ 1.72 µM), an MIC [2] of 1 µg/mL (≈ 1.72 µM) and an MIC [3] of 8 µg/mL (≈ 13.8 µM). For the same molecule, the MIC [4] was greater than 64 µg/mL.
`C=C[C@]1(C)C[C@@H](OC(=O)CNC(=S)NC(=O)c2ccc(Br)cc2)[C@]2(C)[C@H](C)CC[C@]3(CCC(=O)[C@H]32)[C@@H](C)[C@@H]1O` was tested, and the MIC [1] was 16 µg/mL (≈ 25.8 µM), the MIC [2] was 16 µg/mL (≈ 25.8 µM) and the MIC [3] was 16 µg/mL (≈ 25.8 µM). It also gave an MIC [4] greater than 64 µg/mL.
Molecule `C=C[C@]1(C)C[C@@H](OC(=O)CNC(=S)NC2CCCCC2)[C@]2(C)[C@H](C)CC[C@]3(CCC(=O)[C@H]32)[C@@H](C)[C@@H]1O` has an MIC [1] of 1 µg/mL (≈ 1.93 µM), an MIC [2] of 1 µg/mL (≈ 1.93 µM) and an MIC [3] of 32 µg/mL (≈ 61.7 µM). The MIC [4] was greater than 64 µg/mL.
`C=C[C@]1(C)C[C@@H](OC(=O)CNC(=S)NC(=O)c2ccc(F)cc2)[C@]2(C)[C@H](C)CC[C@]3(CCC(=O)[C@H]32)[C@@H](C)[C@@H]1O` was tested, and the MIC [1] was 4 µg/mL (≈ 7.16 µM), the MIC [2] was 4 µg/mL (≈ 7.16 µM) and the MIC [3] was 8 µg/mL (≈ 14.3 µM). For the same molecule, the MIC [4] was greater than 64 µg/mL.
Work on `C=C[C@]1(C)C[C@@H](OC(=O)CNC(=O)Nc2cccc3ccccc23)[C@]2(C)[C@H](C)CC[C@]3(CCC(=O)[C@H]32)[C@@H](C)[C@@H]1O` yielded an MIC [1] of 2 µg/mL (≈ 3.66 µM), an MIC [2] of 2 µg/mL (≈ 3.66 µM) and an MIC [3] of 16 µg/mL (≈ 29.3 µM). The MIC [4] was greater than 64 µg/mL.
With `C=C[C@]1(C)C[C@@H](OC(=O)CNC(=O)Nc2ccccc2-c2ccccc2)[C@]2(C)[C@H](C)CC[C@]3(CCC(=O)[C@H]32)[C@@H](C)[C@@H]1O` the MIC [1] was 4 µg/mL (≈ 6.98 µM), the MIC [2] was 4 µg/mL (≈ 6.98 µM) and the MIC [3] was 32 µg/mL (≈ 55.9 µM). It also gave an MIC [4] greater than 64 µg/mL.
`C=C[C@]1(C)C[C@@H](OC(=O)CNC(=S)Nc2ccccc2C)[C@]2(C)[C@H](C)CC[C@]3(CCC(=O)[C@H]32)[C@@H](C)[C@@H]1O` showed an MIC [1] of 4 µg/mL (≈ 7.59 µM), an MIC [2] of 2 µg/mL (≈ 3.8 µM) and an MIC [3] of 16 µg/mL (≈ 30.4 µM). The MIC [4] was greater than 64 µg/mL.
